We go through 2 molecules from US5242916A, “Method for treatment of neurodegenerative diseases” (R. J. Reynolds Tobacco Company, priority 1992, dated 1993).

In assay [1] the test system is synaptosomes from the striatal area of rat brain. The assay can be described thus: [3H]-Dopamine release from rat striatal synaptosomes. The class given is biochemical, Sprague-Dawley rats. The settings on record: Percent release relative to (S)(-)nicotine at equal concentration, 0.2 ml of a 10 μM solution of ligand. The method, then: Dopamine release was measured by preparing synaptosomes from the striatal area of rat brain obtained from Sprague-Dawley rats generally according to the procedures set forth by Nagy, et al., J. Neurochem., Vol. 43, pp. 1114-1123 (1984). Striata from 4 rats were homogenized in 2 ml of 0.32M sucrose buffered with 5 mM HEPES (pH 7.5), using a glass-teflon tissue grinder. The homogenate was diluted to 5 ml with additional homogenization solution and centrifuged at 1000×g for 10 min. This procedure was repeated on the new pellet and the resulting supernatant was centrifuged at 12,000×g for 20 min. […] Using this method, 30 to 90 percent of the dopamine was taken up into the synaptosomes, as determined by scintillation counting following filtration through glass fiber filters soaked with 0.5 percent polyethyleneimine. […] After the addition of a 0.2 ml of a 10 μM solution of ligand, the perfusate was collected into scintillation vials at 1 min. intervals and the dopamine released was quantified by scintillation counting. Peaks of radioactivity released above background were summed and the average basal release during that time was subtracted from the total. Release was expressed as a percentage of release obtained with an equal concentration of (S)-(-)-nicotine.

Assay [2] addresses high affinity nicotinic receptors. In words: Inhibition of L-[3H]nicotine binding to mouse brain membrane preparations. Further details: species or system Mice (DBA strain). To be noted: mouse brain membranes, 2 hr at 4° C., 10 nM L-[3H]nicotine, Ki calculated from IC50 by the method of Cheng et al. The method, then:
Mice (DBA strain) were maintained on a 12 hour light/dark cycle and were allowed free access to water and food supplied by Wayne Lab Blox, Madison, Wis. Animals used in the present studies were 60 to 90 days of age and weighed 20 to 25 g. Brain membrane preparations were obtained from pooled brain tissue of both males and females.
Mice were killed by cervical dislocation. Brains were removed and placed on an ice-cold platform. […] Protein was determined by the method of Lowry, et al., J. Biol. Chem., Vol. 193, pp. 265-275 (1951), using bovine serum albumin as the standard.
The binding of L-[^3 H]nicotine was measured using a modification of the method of Romano, et al., Science, Vol. 210, pp. 647-650 (1980) as described previously by Marks, et al., Mol. Pharmacol., Vol. 30, pp. 427-436 (1986). The binding of L-[^3 H]nicotine was measured using a 2 hr. incubation at 4° C. […] Nonspecific binding was determined by inclusion of 10 μM nonradioactive nicotine in the incubations. The inhibition of L-[^3 H]nicotine binding by test compounds was determined by including one of eight different concentrations of the test compound in the incubation. […] Inhibition constants (Ki values) were calculated from the IC50 values using the method of Cheng, et al., Biochem. Pharmacol., Vol. 22, pp. 3099-3108 (1973). […]

`O=c1cccc2n1C[C@@H]1CNC[C@H]2C1` [cytisine]: the “Dopamine Release” value in assay [1] was 82%. Moreover, the Ki (in general, the equilibrium dissociation constant of an inhibitor or competing ligand from its target) in assay [2] was 0.4 nM.
With `CN1CC2CC(C1)c1cccc(=O)n1C2` (stereo not shown) [N-methylcytisine], the “Dopamine Release” value in assay [1] turned out to be 29%. Besides, in assay [2], the Ki was 36 nM.
